{
  "source": "patent US20110027352A1",
  "about": "“COMPOUNDS FOR USE IN THE TREATMENT OF NEUROPATHIC PAIN” (priority 2008, published 2011)",
  "assay_type_in_all_cases": "in vivo, C57BL/6J mice",
  "key": {"[1]": {"test_system": "mechanical allodynia of the neuropathic (“Cuff”) mice", "assay": "Sciatic nerve cuff murine model of neuropathic pain, von Frey filament test in neuropathic (Cuff) mice", "details": "for Allodynia in neuropathic (Cuff) animals after chronic treatment, recapitulation (FIG. 25): chronic treatment (14-21 days), doses and modes as in examples 7, 9 to 14 and 20 (formoterol 0.5 mg/kg, terbutalin 5 mg/kg); for Mechanical allodynia of Cuff mice after the first (acute) injection: intraperitoneal, mice neuropathic for 2 weeks; for Effect on neuropathic allodynia acutely after the first injection, summary statement: first injection of the agonist, doses as in examples 7, 9, 11 and 15", "experimental": "(§1) The experiments were carried out on adult male mice. The pharmacological experiments were carried out using C57BL/6J mice (3-to-6 weeks old on their arrival, Charles River, L'Arbresle, France).\nAll the experiments began with mice that were 6-to-9 weeks old. […] For all the other experiments, the mice were combined at four to five per cage and kept under alternating 12-hour day/night (light at 6 am) with food and water ad libitum.\n(§2) The model is obtained by placing a polyethylene cuff around the main branch of the right sciatic nerve of each mouse. Before any surgical procedure, the mice were assigned to the various experimental groups in such a way that the baseline mechanical nociception threshold and the weight are equivalent between the various groups. The surgical procedure was carried out under ketamin-xylazin anesthesia (ketamin: 17 mg/ml, xylazin 2.5 mg/ml, intraperitoneal injection in a proportion of 4 ml/kg) (limited liability company Centravet, Taden, France). The common branch of the sciatic nerve was exposed and a section 2 mm long of a hollow PE-20 polyethylene tube (“Harvard Apparatus”, Les Ulis, France) was placed around said branch (“Cuff” group). […] Control mice were operated on according to the same procedure, but without placing the cuff (“Sham” group). The experimental groups are made up of at least 4 mice for each control (“Sham”) group and at least 5 mice for each neuropathic (“Cuff”) group.\n(§3) The mice are placed in transparent Plexiglas (registered trademark) boxes (7 cm×9 cm×7 cm) placed on a raised grid. Before the test, the mice are allowed to become accustomed to this device for 15 minutes. During the test, the von Frey filaments are applied to the plantar surface of each back foot according to ascending forces (from 0.16 g up to a foot withdrawal response, or up to a maximum of 10 g). Each filament is tested 5 times per foot and the threshold is defined by the presence of 3 or more withdrawals observed over the 5 tests. Before the surgery as described above, the animals were pretested in order to establish their baseline nociceptive response. During the chronic treatment experiments and those of repeated injection of antagonists, the tests are carried out in the mornings before the first injection of the day. During the acute agonist injection experiments, the tests are carried out after the first injection according to the time course as presented on the graphs.\nThe surgery for installing the cuff corresponds to day 0.\n(§4) For all the treatments carried out by injection, said injections were given intraperitoneally in a volume of 50 microL per 10 mg of body weight."}, "[2]": {"test_system": "nociceptive sensitivity of the mice of the control (“Sham”) group", "assay": "von Frey filament test in control (Sham) mice operated without cuff", "details": "for Sensitivity of control (Sham) animals under chronic treatment, recapitulation (FIG. 26): chronic treatment (14-21 days), doses and modes as in examples 2, 7, 9 to 14 and 20 (formoterol 0.5 mg/kg, terbutalin 5 mg/kg); for Nociceptive sensitivity of control (Sham) mice under chronic treatment: repeated injections, doses and modes as for the Cuff mice of the same example", "experimental": "as §1, §2, §3, §4"}, "[3]": {"test_system": "mechanical allodynia of the neuropathic (“Cuff”) mice", "assay": "Cotreatment with adrenoreceptor antagonists in Cuff mice relieved by chronic nortriptylin or beta-agonist treatment, von Frey test", "details": "for Blocking of the effect of antidepressants on neuropathic allodynia by repeated antagonist treatment, summary statement: doses as in examples 3 to 6; for Effect of coadministered beta2-adrenoreceptor antagonist ICI 118,551 on the allodynia of agonist-treated Cuff mice: ICI 118,551 2 mg/kg intraperitoneal, after 3 weeks of agonist treatment (doses as in chronic treatment; terbutalin 0.5 mg/kg), 3 to 6 days of cotreatment; for Effect of ICI 118,551 on the therapeutic effect of chronic agonist treatment on neuropathic allodynia, summary statement: chronic treatment with the agonist plus beta2-adrenoreceptor antagonist ICI 118,551", "experimental": "as §2\nFor the tests, in the examples which follow, the pressure is exerted on the foot of the mice by means of von Frey filaments (Bioseb, Chaville, France) (Benbouzid, M. et al. Biological Psychiatry 63:633-636 (2008) (10) and Benbouzid, M. et al. European Journal of Pain 12:591-599 (2008) (11)). The mice are placed in transparent Plexiglas (registered trademark) boxes (7 cm×9 cm×7 cm) placed on a raised grid. Before the test, the mice are allowed to become accustomed to this device for 15 minutes. During the test, the von Frey filaments are applied to the plantar surface of each back foot according to ascending forces (from 0.16 g up to a foot withdrawal response, or up to a maximum of 10 g). Each filament is tested 5 times per foot and the threshold is defined by the presence of 3 or more withdrawals observed over the 5 tests. Before the surgery as described above, the animals were pretested in order to establish their baseline nociceptive response. During the chronic treatment experiments and those of repeated injection of antagonists, the tests are carried out in the mornings before the first injection of the day. During the acute agonist injection experiments, the tests are carried out after the first injection according to the time course as presented on the graphs.\nThe procedure for intrathecal (i.t.) injection of the beta2-adrenoreceptor antagonist ICI 118,551 (3 μg in 10 μl) is carried out under halothane gas anesthesia according to the protocol described by Inoue et al. (Nature Medicine 2004, 10:712-718 (12)). These i.t. injections are carried out just before the intraperitoneal injection of salbutamol (2 mg/kg, i.p.). A 27-gauge injection needle connected to a 50 μl Hamilton syringe is inserted, between the L5 and L6 vertebrae, into the subarachnoid space. The correct placement of the needle is verified by the presence of a reflex movement of the tail of the mouse. The mice are pretested before this cotreatment procedure, and then cotreated twice (a morning and the corresponding evening) before being retested the following morning for their mechanical nociceptive sensitivity."}, "[4]": {"details": "antagonist 2 mg/kg intraperitoneal with nortriptylin 5 mg/kg twice a day, after 3 weeks of nortriptylin (metoprolol, ICI 118,551: for 6 days)"}, "[5]": {"details": "intraperitoneal antagonist, doses as for the Cuff mice of the same example (ICI 118,551 2 mg/kg, yohimbin 2 mg/kg, propranolol 5 mg/kg), with or without cotreatment"}},
  "note": "“Also recorded” adds a separate entry of the source. Structures can show the parent of a compound that is named as a salt.",
  "data": [
    {"smiles": "CC(C)NCC(O)c1cc(O)cc(O)c1", "note": "(stereo not drawn) [metaproterenol]", "values": [
      {"measurement": "Mechanical allodynia in neuropathic (Cuff) mice after chronic treatment", "setting": "[1]; 1 mg/kg, injection twice a day", "result": "completely suppresses the mechanical allodynia"},
      {"measurement": "Mechanical allodynia in neuropathic (Cuff) mice after chronic application of a gel to the skin", "setting": "[1]; 0.1 ml of gel twice a day, 1 mg/ml metaproterenol hemisulfate in 5% hydroxyethylcellulose gel, from 8 days after surgery", "result": "relieves the mechanical allodynia; also recorded: relieves neuropathic allodynia"},
      {"measurement": "Allodynia in neuropathic (Cuff) animals after chronic treatment, recapitulation (FIG. 25)", "setting": "[1]", "result": "relieve this allodynia; also recorded: causes the neuropathic pain, for example the neuropathic allodynia, to completely disappear"},
      {"measurement": "Sensitivity of control (Sham) animals under chronic treatment, recapitulation (FIG. 26)", "setting": "[2]", "result": "do not affect the control animals; also recorded: does not aspecifically affect the sensitivity of the control animals"}
    ]},
    {"smiles": "CC(C)NCC(O)COc1ccc(CC(N)=O)cc1", "note": "(stereo not drawn) [atenolol]", "values": [
      {"measurement": "Effect of antagonist cotreatment with nortriptylin, compared with metoprolol", "setting": "[3]; 5 mg/kg in place of metoprolol 2 mg/kg, same results = as metoprolol (no influence on the therapeutic benefit)", "result": "same results"}
    ]},
    {"smiles": "COCCc1ccc(OCC(O)CNC(C)C)cc1", "note": "(racemic) [metoprolol, (+/−)-metoprolol (+)-tartrate]", "values": [
      {"measurement": "Effect of antagonist cotreatment on the therapeutic benefit of nortriptylin in Cuff mice", "setting": "[3]; [4]", "result": "has no influence on the therapeutic benefit"},
      {"measurement": "Blocking of the effect of antidepressants on neuropathic allodynia by repeated antagonist treatment, summary statement", "setting": "[3]", "result": "only the beta2-adrenoreceptor antagonist blocks the effect of antidepressants"}
    ]},
    {"smiles": "COC(=O)[C@@H]1[C@H]2C[C@H]3c4[nH]c5ccccc5c4CCN3C[C@@H]2CC[C@@H]1O", "note": "[yohimbin]", "values": [
      {"measurement": "Effect of antagonist cotreatment on the therapeutic benefit of nortriptylin in Cuff mice", "setting": "[3]; [4]", "result": "has no influence on the therapeutic benefit"},
      {"measurement": "Blocking of the effect of antidepressants on neuropathic allodynia by repeated antagonist treatment, summary statement", "setting": "[3]", "result": "ineffective in blocking the analgesic effect of antidepressants"},
      {"measurement": "Nociceptive sensitivity of control (Sham) mice under antagonist injections", "setting": "[2]; [5]", "result": "not affected"}
    ]},
    {"smiles": "CC(Cc1ccc(O)cc1)NCC(O)c1cc(O)cc(O)c1", "note": "(stereo not drawn) [fenoterol]", "values": [
      {"measurement": "Effect of coadministered beta2-adrenoreceptor antagonist ICI 118,551 on the allodynia of agonist-treated Cuff mice", "setting": "[3]", "result": "causes the allodynia to reappear"},
      {"measurement": "Effect of ICI 118,551 on the therapeutic effect of chronic agonist treatment on neuropathic allodynia, summary statement", "setting": "[3]", "result": "blocks the therapeutic effect"},
      {"measurement": "Mechanical allodynia of Cuff mice after the first (acute) injection", "setting": "[1]; 0.7 mg/kg", "result": "has no effect on the mechanical allodynia"},
      {"measurement": "Mechanical allodynia in neuropathic (Cuff) mice after chronic treatment", "setting": "[1]; 0.7 mg/kg, twice a day", "result": "completely suppresses the mechanical allodynia"},
      {"measurement": "Allodynia in neuropathic (Cuff) animals after chronic treatment, recapitulation (FIG. 25)", "setting": "[1]", "result": "relieve this allodynia; also recorded: causes the neuropathic pain, for example the neuropathic allodynia, to completely disappear"},
      {"measurement": "Effect on neuropathic allodynia acutely after the first injection, summary statement", "setting": "[1]", "result": "not observed acutely after the first injection"},
      {"measurement": "Sensitivity of control (Sham) animals under chronic treatment, recapitulation (FIG. 26)", "setting": "[2]", "result": "do not affect the control animals; also recorded: does not aspecifically affect the sensitivity of the control animals"},
      {"measurement": "Nociceptive sensitivity of control (Sham) mice under chronic treatment", "setting": "[2]", "result": "not affected"}
    ]},
    {"smiles": "CC(C)NCC(O)c1ccc(NS(C)(=O)=O)cc1.Cl", "note": "(racemic) [sotatol, (+/−) sotatol hydrochloride]", "values": [
      {"measurement": "Effect of antagonist cotreatment with nortriptylin, compared with propranolol", "setting": "[3]; 2 mg/kg in place of propranolol 5 mg/kg, same results = as propranolol (allodynia reappears in Cuff, Sham not affected)", "result": "same results"}
    ]},
    {"smiles": "CCc1ccccc1OC[C@@H](O)CN[C@H]1CCCc2ccccc21", "note": "[SR59230A]", "values": [
      {"measurement": "Effect of antagonist cotreatment on the therapeutic benefit of nortriptylin in Cuff mice", "setting": "[3]; antagonist 2.5 mg/kg intraperitoneal for 6 days with nortriptylin, after 3 weeks of nortriptylin", "result": "has no influence on the therapeutic benefit"},
      {"measurement": "Blocking of the effect of antidepressants on neuropathic allodynia by repeated antagonist treatment, summary statement", "setting": "[3]", "result": "only the beta2-adrenoreceptor antagonist blocks the effect of antidepressants"}
    ]},
    {"smiles": "CC(C)(C)NCC(O)c1ccc(O)c(CO)c1", "note": "(stereo not drawn) [salbutamol]", "values": [
      {"measurement": "Effect of intrathecal beta2-adrenoreceptor antagonist ICI 118,551 on the allodynia of agonist-treated Cuff mice", "setting": "[3]; ICI 118,551 3 μg in 10 μl intrathecal before each of 2 injections of salbutamol 2 mg/kg i.p., after at least 3 weeks of salbutamol", "result": "causes the allodynia to reappear; also recorded: blocks the therapeutic effect"},
      {"measurement": "Effect of coadministered beta2-adrenoreceptor antagonist ICI 118,551 on the allodynia of agonist-treated Cuff mice", "setting": "[3]", "result": "causes the allodynia to reappear"},
      {"measurement": "Effect of ICI 118,551 on the therapeutic effect of chronic agonist treatment on neuropathic allodynia, summary statement", "setting": "[3]", "result": "blocks the therapeutic effect"},
      {"measurement": "Mechanical allodynia in neuropathic (Cuff) mice after chronic treatment", "setting": "[1]; 2 mg/kg, injection twice a day", "result": "relieves the mechanical allodynia"},
      {"measurement": "Mechanical allodynia of Cuff mice after the first (acute) injection", "setting": "[1]; 2 mg/kg", "result": "has no effect on the mechanical allodynia"},
      {"measurement": "Allodynia in neuropathic (Cuff) animals after chronic treatment, recapitulation (FIG. 25)", "setting": "[1]", "result": "relieve this allodynia; also recorded: causes the neuropathic pain, for example the neuropathic allodynia, to completely disappear"},
      {"measurement": "Effect on neuropathic allodynia acutely after the first injection, summary statement", "setting": "[1]", "result": "not observed acutely after the first injection"},
      {"measurement": "Mechanical allodynia in neuropathic (Cuff) mice after chronic treatment by inhalation", "setting": "[1]; salbutamol sulfate inhaler (Ventolin), twice a day, 100 μg per session for 2 weeks, then inhaler pressed 3 times per session for 9 days", "result": "relieves the mechanical allodynia; also recorded: relieves neuropathic allodynia"},
      {"measurement": "Sensitivity of control (Sham) animals under chronic treatment, recapitulation (FIG. 26)", "setting": "[2]", "result": "do not affect the control animals; also recorded: does not aspecifically affect the sensitivity of the control animals"},
      {"measurement": "Nociceptive sensitivity of control (Sham) mice under chronic treatment", "setting": "[2]", "result": "not affected"}
    ]},
    {"smiles": "Cc1ccc(OCC(O)C(C)NC(C)C)c2c1CCC2", "note": "(stereo not drawn) [ICI 118,551]", "values": [
      {"measurement": "Time to reappearance of allodynia after the beginning of the cotreatment with nortriptylin", "setting": "[3]; ICI 118,551 2 mg/kg intraperitoneal coadministered with nortriptylin, Cuff mice", "result": "≤ 48", "unit": "h"},
      {"measurement": "Effect of antagonist cotreatment on the therapeutic benefit of nortriptylin in Cuff mice", "setting": "[3]; [4]", "result": "leads to reappearance of the neuropathic allodynia"},
      {"measurement": "Blocking of the effect of antidepressants on neuropathic allodynia by repeated antagonist treatment, summary statement", "setting": "[3]", "result": "blocks the effect of antidepressants"},
      {"measurement": "Nociceptive sensitivity of control (Sham) mice under antagonist injections", "setting": "[2]; ICI 118,551 intraperitoneal (2 mg/kg) or intrathecal (3 μg in 10 μl), with salbutamol", "result": "not affected"},
      {"measurement": "Nociceptive sensitivity of control (Sham) mice under antagonist injections", "setting": "[2]; [5]", "result": "not affected; also recorded: does not affect the response of the control animals"}
    ]},
    {"smiles": "CC(NCCc1ccc(O)cc1)C(O)c1ccc(O)cc1", "note": "(stereo not drawn) [ritodrin]", "values": [
      {"measurement": "Effect of coadministered beta2-adrenoreceptor antagonist ICI 118,551 on the allodynia of agonist-treated Cuff mice", "setting": "[3]", "result": "causes the allodynia to reappear"},
      {"measurement": "Effect of ICI 118,551 on the therapeutic effect of chronic agonist treatment on neuropathic allodynia, summary statement", "setting": "[3]", "result": "blocks the therapeutic effect"},
      {"measurement": "Mechanical allodynia in neuropathic (Cuff) mice after chronic treatment", "setting": "[1]; 10 mg/kg, injection twice a day", "result": "completely suppresses the mechanical allodynia"},
      {"measurement": "Allodynia in neuropathic (Cuff) animals after chronic treatment, recapitulation (FIG. 25)", "setting": "[1]", "result": "relieve this allodynia; also recorded: causes the neuropathic pain, for example the neuropathic allodynia, to completely disappear"},
      {"measurement": "Sensitivity of control (Sham) animals under chronic treatment, recapitulation (FIG. 26)", "setting": "[2]", "result": "do not affect the control animals; also recorded: does not aspecifically affect the sensitivity of the control animals"}
    ]},
    {"smiles": "CCC(NC(C)C)C(O)c1ccc(O)c2[nH]c(=O)ccc12", "note": "(stereo not drawn) [procaterol]", "values": [
      {"measurement": "Effect of ICI 118,551 on the therapeutic effect of chronic agonist treatment on neuropathic allodynia, summary statement", "setting": "[3]", "result": "blocks the therapeutic effect"},
      {"measurement": "Mechanical allodynia in neuropathic (Cuff) mice after chronic treatment", "setting": "[1]; 0.8 mg/kg, injection twice a day", "result": "completely suppresses the mechanical allodynia"},
      {"measurement": "Allodynia in neuropathic (Cuff) animals after chronic treatment, recapitulation (FIG. 25)", "setting": "[1]", "result": "relieve this allodynia; also recorded: causes the neuropathic pain, for example the neuropathic allodynia, to completely disappear"},
      {"measurement": "Sensitivity of control (Sham) animals under chronic treatment, recapitulation (FIG. 26)", "setting": "[2]", "result": "do not affect the control animals; also recorded: does not aspecifically affect the sensitivity of the control animals"}
    ]},
    {"smiles": "CC(C)NCC(O)COc1cccc2ccccc12", "note": "(racemic) [propranolol, (+/−)-propranolol hydrochloride]", "values": [
      {"measurement": "Effect of antagonist cotreatment on the therapeutic benefit of nortriptylin in Cuff mice", "setting": "[3]; antagonist 5 mg/kg intraperitoneal with nortriptylin 5 mg/kg twice a day, after 3 weeks of nortriptylin", "result": "causes the allodynia to reappear in a few days"},
      {"measurement": "Blocking of the effect of antidepressants on neuropathic allodynia by repeated antagonist treatment, summary statement", "setting": "[3]", "result": "blocks the therapeutic effect of antidepressants"},
      {"measurement": "Nociceptive sensitivity of control (Sham) mice under antagonist injections", "setting": "[2]; intraperitoneal antagonist, doses as for the Cuff mice of the same example (ICI 118,551 2 mg/kg, yohimbin 2 mg/kg, propranolol 5 mg/kg), with or without cotreatment, hydrochloride", "result": "not affected; also recorded: does not affect the response of the control animals"}
    ]}
  ]
}
